According to ChEMBL document CHEMBL5338725, “New Glucosamine-Based TLR4 Agonists: Design, Synthesis, Mechanism of Action, and In Vivo Activity as Vaccine Adjuvants” (J Med Chem, 2023):
Active and inactive are the calls of the source. The calls are words filed in the database; no cut-off is given here.

Key:
HEK-Blue hTLR4 = experiment: Agonist activity at human TLR4 in HEK-Blue hTLR4 cells at 100 ng/ml incubated for 18 hrs by SEAP reporter gene based Quanti-blue assay; format: cell-based; conditions: filed as agonist
Mus musculus [1] = experiment: Immuno-adjuvant activity in OVA immunized C57BL/6J mouse model assessed as increase in anti-OVA IgG2b antibody at 10 ug, sc administered on day 0 and as booster dose on day 21 and measured after 42 days by ELISA; format: functional, organism-based; conditions: dose 10.0 µg, time 42.0 day
Mus musculus [2] = experiment: Immuno-adjuvant activity in OVA immunized C57BL/6J mouse model assessed as increase in anti-OVA IgG2c antibody at 10 ug, sc administered on day 0 and as booster dose on day 21 and measured after 42 days by ELISA; format: functional, organism-based; conditions: dose 10.0 µg, time 42.0 day
Mus musculus [3] = experiment: Immuno-adjuvant activity in OVA immunized C57BL/6J mouse model assessed as anti-OVA […] antibody production at 10 ug, sc administered on day 0 and as booster dose on day 21 and measured after 42 days by ELISA; format: functional, organism-based; conditions: dose 10.0 µg, time 42.0 day
Mus musculus [4] = experiment: Immuno-adjuvant activity in OVA immunized C57BL/6J mouse model assessed as increase in anti-OVA IgG1 antibody at 10 ug, sc administered on day 0 and as booster dose on day 21 and measured after 42 days by ELISA; format: functional, organism-based; conditions: dose 10.0 µg, time 42.0 day
PBMC = experiment: Cytotoxicity against human PBMC cells assessed as reduction in cell viability at 0.1 to 25 uM incubated for 18 hrs by MTT assay; format: toxicity, cell-based; conditions: dose 0.1-25 µM
[5] = target: Toll-like receptor 4 (Homo sapiens) (UniProt O00206); experiment: Agonist activity at TLR4 in human PBMC assessed as induction of IL-1beta production incubated for 6 hrs by ELISA method; format: cell-based; conditions: filed as agonist, dose 10-25 µM
[6] = target: Toll-like receptor 4 (Homo sapiens) (UniProt O00206); experiment: Activation of TLR4 in PMA-differentiated human THP1-Xblue cells assessed as induction of IL-6 secretion at 0.1 to 25 uM by incubated for 6 hrs ELISA method; format: cell-based; conditions: dose 0.1-25 µM
THP1-Xblue [7] = experiment: Activation of NF-kappaB pathway in PMA-differentiated human THP1-Xblue cells assessed p65 translocation from cytosol to nucleus at 25 uM incubated for 4 hrs by immunofluorescence analysis; format: cell-based
Mus musculus [8] = experiment: Immuno-adjuvant activity in OVA immunized C57BL/6J mouse model assessed as increase in anti-OVA IgG antibody at 10 ug, sc administered on day 0 and as booster dose on day 21 and measured on day 42 by ELISA; format: functional, organism-based; conditions: dose 10.0 µg
[9] = target: NACHT, LRR and PYD domains-containing protein 3 (Homo sapiens) (UniProt Q96P20); experiment: Activation of NLRP3 inflammasome in PMA-differentiated human THP1-Xblue cells assessed as IL-1beta production at 25 uM preincubated for 1 hr with MCC950 followed by compound addition and measured after 6 hrs by ELISA method; format: cell-based
RAW-Blue = experiment: Activation of NF-kappaB/AP-1 transcriptional activity in mouse RAW-Blue cells at 0.1 uM incubated for 18 hrs by quanti-blue/SEAP-based spectrophotometry analysis; format: cell-based; conditions: filed as activator
THP1-Xblue [10] = experiment: Activation of […] in PMA-differentiated human THP1-Xblue cells assessed as p-IRF3 translocation from cytosol to nucleus at 25 uM measured after 2 to 4 hrs by immunofluorescence analysis; format: cell-based; conditions: time 2-4 hrs
[11] = target: Toll-like receptor 4 (Homo sapiens) (UniProt O00206); experiment: Agonist activity at human TLR4 in HEK-Blue hTLR4 cells at 0.1 to 25 uM incubated for 18 hrs by SEAP reporter gene based Quanti-blue assay; format: cell-based; conditions: filed as agonist, dose 0.1-25 µM
[12] = target: Toll-like receptor 4 (Homo sapiens) (UniProt O00206); experiment: Activation of TLR4 in PMA-differentiated human THP1-Xblue cells assessed as induction of TNFalpha release at 25 uM incubated for 6 hrs by ELISA method; format: cell-based; conditions: filed as activator
[13] = target: MAP kinase p38 (Homo sapiens) (UniProt O15264+Q15759+Q16539+P53778); experiment: Activation of p38 MAPK phosphorylation in PMA-differentiated human THP1-Xblue cells at 25 uM incubated for 1.5 to 2.5 hrs by Western blot analysis; format: cell-based; conditions: filed as activator, time 1.5-2.5 hrs
[14] = target: Toll-like receptor 4 (Homo sapiens) (UniProt O00206); experiment: Agonist activity at TLR4 in human PBMC assessed as induction of TNF production incubated for 6 hrs by ELISA method; format: cell-based; conditions: filed as agonist, dose 10-25 µM
[15] = target: Toll-like receptor 4 (Homo sapiens) (UniProt O00206); experiment: Activation of TLR4 in PMA-differentiated human THP1-Xblue cells assessed as induction of IL-1beta release at 25 uM by incubated for 6 hrs ELISA method; format: cell-based; conditions: filed as activator
[16] = target: Toll-like receptor 4 (Homo sapiens) (UniProt O00206); experiment: Activation of TLR4 in PMA-differentiated human THP1-Xblue cells assessed as induction of IL-1beta release incubated for 6 hrs by ELISA method; format: cell-based; conditions: filed as activator, dose 0.1-25 µM
THP1-Xblue [17] = experiment: Activation of NF-kappaB/AP-1 transcriptional activity in human THP1-Xblue cells at 10 uM incubated for 18 hrs by quanti-blue/SEAP-based spectrophotometry analysis; format: cell-based; conditions: filed as activator
[18] = Cytotoxicity against PMA-differentiated human THP1-Xblue cells assessed as reduction in cell viability at 0.1 to 25 uM incubated for 18 hrs by MTT assay; format: toxicity, cell-based; conditions: dose 0.1-25 µM
THP1-Xblue [19] = experiment: Activation of NF-KappaB/AP-1 signalling pathway in PMA-differentiated human THP-1 X-blue cells assessed as induction of SEAP release at 0.1 to 25 uM incubated for 18 hrs by QUANTI-Blue assay; format: cell-based; conditions: dose 0.1-25 µM

Toll-like receptor 4 (Homo sapiens), sequence (O00206 whole entry): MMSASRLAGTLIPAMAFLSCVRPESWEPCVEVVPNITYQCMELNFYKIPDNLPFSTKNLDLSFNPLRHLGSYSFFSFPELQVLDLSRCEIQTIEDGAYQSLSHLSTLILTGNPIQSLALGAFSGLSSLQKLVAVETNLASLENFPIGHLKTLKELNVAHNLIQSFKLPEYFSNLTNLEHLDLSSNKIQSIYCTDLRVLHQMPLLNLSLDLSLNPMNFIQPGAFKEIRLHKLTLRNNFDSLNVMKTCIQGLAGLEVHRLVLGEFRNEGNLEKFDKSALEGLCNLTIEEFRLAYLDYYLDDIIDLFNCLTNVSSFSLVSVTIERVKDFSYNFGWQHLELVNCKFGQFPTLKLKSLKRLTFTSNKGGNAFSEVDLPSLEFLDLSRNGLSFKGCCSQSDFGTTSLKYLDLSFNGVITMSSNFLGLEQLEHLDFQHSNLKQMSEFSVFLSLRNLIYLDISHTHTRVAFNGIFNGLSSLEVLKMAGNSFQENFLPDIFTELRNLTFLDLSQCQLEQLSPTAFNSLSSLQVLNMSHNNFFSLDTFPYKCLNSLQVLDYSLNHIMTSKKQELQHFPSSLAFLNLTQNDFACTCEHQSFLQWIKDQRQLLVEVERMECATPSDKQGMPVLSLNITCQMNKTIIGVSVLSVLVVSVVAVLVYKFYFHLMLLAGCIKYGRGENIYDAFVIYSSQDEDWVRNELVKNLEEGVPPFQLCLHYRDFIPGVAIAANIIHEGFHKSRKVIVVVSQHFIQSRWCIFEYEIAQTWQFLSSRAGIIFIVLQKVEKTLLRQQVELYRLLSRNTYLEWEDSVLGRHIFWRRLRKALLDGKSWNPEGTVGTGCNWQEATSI
NACHT, LRR and PYD domains-containing protein 3 (Homo sapiens), sequence (Q96P20 whole entry, the tested form may be a part): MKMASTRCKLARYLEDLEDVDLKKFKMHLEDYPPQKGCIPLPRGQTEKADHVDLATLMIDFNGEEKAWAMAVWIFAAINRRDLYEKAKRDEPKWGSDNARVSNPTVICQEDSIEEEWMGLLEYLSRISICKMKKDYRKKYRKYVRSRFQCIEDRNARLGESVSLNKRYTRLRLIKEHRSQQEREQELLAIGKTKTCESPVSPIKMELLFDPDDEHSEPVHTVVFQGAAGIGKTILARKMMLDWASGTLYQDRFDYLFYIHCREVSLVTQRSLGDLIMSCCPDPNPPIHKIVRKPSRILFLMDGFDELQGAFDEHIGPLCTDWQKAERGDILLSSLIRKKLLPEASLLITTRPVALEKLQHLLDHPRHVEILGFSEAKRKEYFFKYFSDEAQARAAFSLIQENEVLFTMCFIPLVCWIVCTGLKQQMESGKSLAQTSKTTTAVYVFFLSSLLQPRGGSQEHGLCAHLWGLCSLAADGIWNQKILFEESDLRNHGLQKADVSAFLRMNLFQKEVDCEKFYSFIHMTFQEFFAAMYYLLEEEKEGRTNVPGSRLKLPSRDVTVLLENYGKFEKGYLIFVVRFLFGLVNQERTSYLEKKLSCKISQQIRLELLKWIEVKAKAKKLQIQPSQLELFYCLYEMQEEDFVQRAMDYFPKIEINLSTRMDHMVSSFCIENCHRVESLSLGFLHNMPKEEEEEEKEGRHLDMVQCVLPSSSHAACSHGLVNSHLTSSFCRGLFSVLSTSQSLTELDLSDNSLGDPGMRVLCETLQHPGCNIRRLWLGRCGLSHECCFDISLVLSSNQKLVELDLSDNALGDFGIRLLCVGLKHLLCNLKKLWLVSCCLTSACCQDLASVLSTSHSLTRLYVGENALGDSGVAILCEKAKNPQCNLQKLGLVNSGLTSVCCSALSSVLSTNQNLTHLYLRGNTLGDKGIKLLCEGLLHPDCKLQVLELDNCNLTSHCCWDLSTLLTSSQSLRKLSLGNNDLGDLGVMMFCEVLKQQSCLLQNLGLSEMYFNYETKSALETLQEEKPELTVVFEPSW

SMILES: CCCCCCCCCCCCCC(=O)O[C@H](CCCCCCCCCCC)CC(=O)N[C@H]1[C@H](OC[C@H]2O[C@H](O)[C@H](NC(=O)C[C@H](O)CCCCCCCCCCC)[C@@H](OC(=O)C[C@H](O)CCCCCCCCCCC)[C@@H]2O)O[C@H](CO)[C@@H](OP(=O)(O)O)[C@@H]1OC(=O)C[C@@H](CCCCCCCCCCC)OC(=O)CCCCCCCCCCCCC
- Activity (HEK-Blue hTLR4): Active
- Activity (Mus musculus [1]): inactive
- Activity (Mus musculus [2]): Active

SMILES: CCCCCCCCCCCC(=O)N[C@H]1[C@@H](OP(=O)(O)O)O[C@H](CO)[C@@H](OC(=O)CCCCCCCCCCC)[C@@H]1OC(=O)CCCCCCCCCCC
- Activity (Mus musculus [1]): inactive
- Activity (Mus musculus [2]): inactive
- Activity (Mus musculus [3]): inactive
- Activity (Mus musculus [4]): inactive

SMILES: CCCCCCCCCCCC(=O)N[C@H]1[C@H](OC(=O)CCCCCCCCCCC)O[C@H](CO)[C@@H](OP(=O)([O-])[O-])[C@@H]1OC(=O)CCCCCCCCCCC.[Na+].[Na+]
- Activity (PBMC): Non-Toxic
- Activity [5]: Dose-Dependent Effect
- Activity [6]: inactive
- Activity (THP1-Xblue [7]): inactive
- Activity (Mus musculus [8]): Active
- Activity [9]: inactive
- Activity (RAW-Blue): Active
- Activity (THP1-Xblue [10]): inactive
- Activity [11]: Active
- Activity (Mus musculus [1]): inactive
- Activity [12]: Active
- Activity [13]: Active
- Activity [14]: Dose-Dependent Effect
- Activity (Mus musculus [3]): inactive
- Activity [15]: Active
- Activity [16]: Dose-Dependent Effect
- Activity (Mus musculus [4]): Active
- Activity (THP1-Xblue [17]): Active

SMILES: CCCCCCCCCCCC(=O)N[C@H]1[C@H](OC(=O)CCCCCCCCC)O[C@H](CO)[C@@H](OP(=O)([O-])[O-])[C@@H]1OC(=O)CCCCCCCCC.[Na+].[Na+]
- Activity [11]: Active
- Activity [18]: Non-Toxic

SMILES: CCCCCCCCCCCCCC(=O)O[C@@H]1O[C@H](CO)[C@@H](OP(=O)([O-])[O-])[C@H](OC(=O)CCCCCCCCCCCCC)[C@H]1NC(=O)CCCCCCCCCCC.[Na+].[Na+]
- Activity (PBMC): Non-Toxic
- Activity [5]: Dose-Dependent Effect
- Activity [6]: inactive
- Activity [11]: Active
- Activity [12]: Active
- Activity [14]: Dose-Dependent Effect
- Activity [18]: Non-Toxic
- Activity [16]: Dose-Dependent Effect

SMILES: CCCCCCCCCCCCCC(=O)N[C@H]1[C@H](OC(=O)CCCCCCCCCCCCC)O[C@H](CO)[C@@H](OP(=O)([O-])[O-])[C@@H]1OC(=O)CCCCCCCCCCCCC.[Na+].[Na+]
- Activity [11]: Active
- Activity [18]: Non-Toxic

SMILES: CCCCCCCCCCCC(=O)N[C@H]1[C@@H](OC(=O)CCCCCCCCCCC)O[C@H](CO)[C@@H](OP(=O)(O)O)[C@@H]1OC(=O)CCCCCCCCCCC
- Activity (THP1-Xblue [19]): inactive
